As usually defined, the IC50 is the midpoint of a concentration-inhibition curve.

The values below come from US10189859B2, “Derivatives of 6-(2,3-dichlorophenyl)-1,2,4-triazin-5-amine” (Nektar Therapeutics, priority 2013, dated 2019).

Series [1] is described as follows: Pharmacokinetics after intravenous or oral dosing, plasma LC/MS/MS. Format: in vivo. The conditions noted are these: fasted male Sprague Dawley rats. The protocol:
Fasted, male Sprague Dawley rats were dosed intravenously or orally. Blood samples were collected at pre-determined time points and plasma was separated. Test article concentrations were determined in plasma by a LC/MS/MS method. Non compartmental analysis was performed to estimate the area under the plasma concentration vs. time curve (AUC). Clearance parameters (CL), bioavailabilities (F) and half-lives were calculated.

For series [2], the target named is Nav1.7 sodium channels (human SCN9A gene) (Homo sapiens (Human), UniProt Q15858). The experiment in a line: Automated patch clamp (IonWorks Barracuda) of Nav1.7 stably expressed in CHO cells. Format: cell-based. The method, then:
The potencies of the compounds provided herein to block specific Na+ channels was measured using automated patch clamp electrophysiologically of Nav1.7 sodium channels (human SCN9A gene) stably expressed in CHO cells using the IonWorks™ Barracuda system. Currents were measured from the whole cell patch configuration. From a holding potential of −90 mV, membranes were subjected to a 200 ms pre-pulse to −120 mV, then pulsed to 0 mV to measure blockade of the tonic (resting) state. Inactivated state block was elicited by repolarization to −100 mV (20 ms pulse duration), followed by depolarization to 0 mV (20 ms pulse duration). Peak inward Na+ currents were measured in the presence of vehicle or various concentrations of the test compound to determine the percent block of current. Concentration-response relationships were used to calculate IC50 values for the illustrative compounds.

The mark [3] stands for this setting: inactivated state block, CHO cells, read-out: Inactivated state IC50.
Setting [4] is: tonic (resting) state block, CHO cells, read-out: Tonic state IC50.
[5] abbreviates: read-out: Inactivated state IC50.

Structures can show the parent of a compound that is named as a salt. Where two headings read alike, the source gives them in different places.

Sequence of Nav1.7 sodium channels (human SCN9A gene) (Q15858 whole entry): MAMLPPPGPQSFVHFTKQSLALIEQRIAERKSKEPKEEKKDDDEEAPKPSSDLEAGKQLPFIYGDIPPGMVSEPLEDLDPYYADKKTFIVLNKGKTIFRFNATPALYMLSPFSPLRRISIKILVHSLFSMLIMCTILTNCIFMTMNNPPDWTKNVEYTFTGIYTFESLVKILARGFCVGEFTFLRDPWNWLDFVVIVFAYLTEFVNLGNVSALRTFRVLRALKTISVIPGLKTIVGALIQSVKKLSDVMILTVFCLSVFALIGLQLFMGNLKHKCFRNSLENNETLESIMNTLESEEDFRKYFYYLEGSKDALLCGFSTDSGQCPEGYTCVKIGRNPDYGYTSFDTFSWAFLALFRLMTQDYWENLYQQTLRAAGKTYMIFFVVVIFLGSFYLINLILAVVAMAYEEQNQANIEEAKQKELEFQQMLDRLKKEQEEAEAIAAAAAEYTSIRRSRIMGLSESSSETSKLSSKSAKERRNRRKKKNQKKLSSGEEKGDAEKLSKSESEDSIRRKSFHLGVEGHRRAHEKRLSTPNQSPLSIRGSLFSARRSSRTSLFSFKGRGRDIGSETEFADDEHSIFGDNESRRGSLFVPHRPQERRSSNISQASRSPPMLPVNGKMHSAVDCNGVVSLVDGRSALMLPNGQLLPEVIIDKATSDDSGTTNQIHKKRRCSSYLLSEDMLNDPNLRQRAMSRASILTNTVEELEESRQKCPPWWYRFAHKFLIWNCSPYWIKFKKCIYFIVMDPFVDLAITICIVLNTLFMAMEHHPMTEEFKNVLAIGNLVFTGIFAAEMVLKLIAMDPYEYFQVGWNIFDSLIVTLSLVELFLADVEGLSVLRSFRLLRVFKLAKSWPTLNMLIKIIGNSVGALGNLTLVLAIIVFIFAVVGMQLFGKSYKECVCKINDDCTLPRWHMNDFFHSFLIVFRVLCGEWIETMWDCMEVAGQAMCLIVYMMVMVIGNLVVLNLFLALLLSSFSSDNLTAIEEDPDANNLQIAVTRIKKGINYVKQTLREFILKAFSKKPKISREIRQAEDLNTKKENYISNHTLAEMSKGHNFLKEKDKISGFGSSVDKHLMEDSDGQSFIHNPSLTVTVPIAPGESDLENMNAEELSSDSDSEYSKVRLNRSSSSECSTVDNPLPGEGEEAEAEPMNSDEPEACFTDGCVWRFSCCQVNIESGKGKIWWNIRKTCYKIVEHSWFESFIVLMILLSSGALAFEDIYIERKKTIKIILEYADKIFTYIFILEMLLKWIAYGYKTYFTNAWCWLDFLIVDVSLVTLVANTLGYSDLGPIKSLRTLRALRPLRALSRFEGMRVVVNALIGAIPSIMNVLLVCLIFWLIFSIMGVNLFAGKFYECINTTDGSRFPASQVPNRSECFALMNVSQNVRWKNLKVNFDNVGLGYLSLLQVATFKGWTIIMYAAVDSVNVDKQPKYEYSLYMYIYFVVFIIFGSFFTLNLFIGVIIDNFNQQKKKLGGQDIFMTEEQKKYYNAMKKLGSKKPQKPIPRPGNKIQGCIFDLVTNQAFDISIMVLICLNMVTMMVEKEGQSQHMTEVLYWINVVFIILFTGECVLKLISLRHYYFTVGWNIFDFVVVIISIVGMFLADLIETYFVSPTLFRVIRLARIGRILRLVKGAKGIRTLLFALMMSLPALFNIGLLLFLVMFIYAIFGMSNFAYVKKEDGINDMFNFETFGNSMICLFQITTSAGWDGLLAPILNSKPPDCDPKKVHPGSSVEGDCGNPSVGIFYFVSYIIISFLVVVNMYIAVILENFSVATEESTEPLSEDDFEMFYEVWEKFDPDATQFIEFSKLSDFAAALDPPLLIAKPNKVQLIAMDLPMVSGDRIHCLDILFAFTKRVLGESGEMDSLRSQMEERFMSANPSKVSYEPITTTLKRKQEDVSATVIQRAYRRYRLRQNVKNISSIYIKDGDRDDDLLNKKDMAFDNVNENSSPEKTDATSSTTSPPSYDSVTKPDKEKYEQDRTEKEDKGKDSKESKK

`Nc1nc(N2CC(N)C2)nnc1-c1cccc(Cl)c1Cl` [Compound 126, 5-amino-3-N-(3-aminoazetidinyl) lamotrigine diHCl salt]: in series [1], the “exposure after oral dosing (qualitative ranking)” value (shortened to “exposure after oral dosing”) is listed as “best exposure after oral dosing”.
Turning to `CC(CO)(CO)Nc1nnc(-c2cccc(Cl)c2Cl)c(N)n1` [Compound 47, 2-((5-Amino-6-(2,3-dichlorophenyl)-1,2,4-triazin-3-yl)amino)-2-methylpropane-1,3-diol], in series [1], the “exposure after oral dosing” value is on record as “best exposure after oral dosing”.
Take `COC(=O)[C@@H]1C[C@@H](O)CN1c1nnc(-c2cccc(Cl)c2Cl)c(N)n1` [Compound 65, (2S,4R)-Methyl 1-(5-amino-6-(2,3-dichlorophenyl)-1,2,4-triazin-3-yl)-4-hydroxypyrrolidine-2-carboxylate]: in series [1], the “pharmacokinetics (qualitative ranking of the compounds tested)” value (“pharmacokinetics” for short) is “most favorable pharmacokinetics” and the “exposure after oral dosing” value was “best exposure after oral dosing”.
As for `Nc1nc(N2CCN(C[C@@H](O)COCC(F)(F)F)CC2)nnc1-c1cccc(Cl)c1Cl` [Compound 94, (R)-1-(4-(5-amino-6-(2,3-dichlorophenyl)-1,2,4-triazin-3-yl)-piperazin-1-yl)-3-(2,2,2-trifluoroethoxy)-propan-2-ol], in series [1], the “pharmacokinetics” value was “most favorable pharmacokinetics” and the “exposure after oral dosing” value is “best exposure after oral dosing”.
Turning to `Nc1nc(N2CC(O)C2)nnc1-c1cccc(Cl)c1Cl` [Compound 129, 3-N-(3-hydroxyazetin-1-yl) lamotrigine], in series [1], the “pharmacokinetics” value is “most favorable pharmacokinetics” and the “exposure after oral dosing” value is listed as “best exposure after oral dosing”.
As to `Nc1nc(N2CCN(CC(O)COC(F)(F)F)CC2)nnc1-c1cccc(Cl)c1Cl` (stereo not shown) [Compound 27, 1-(4-(5-Amino-6-(2,3-dichlorophenyl)-1,2,4-triazin-3-yl)piperazin-1-yl)-3-(trifluoromethoxy)propan-2-ol], in series [1], the “pharmacokinetics” value is listed as “most favorable pharmacokinetics” and the “exposure after oral dosing” value is given as “best exposure after oral dosing”.
The corresponding values for `COC[C@@H](O)COC1CN(c2nnc(-c3cccc(Cl)c3Cl)c(N)n2)C1` [Compound 75, (R)-1-((1-(5-Amino-6-(2,3-dichlorophenyl)-1,2,4-triazin-3-yl)azetidin-3-yl)oxy)-3-methoxypropan-2-ol] are “most favorable pharmacokinetics” and “best exposure after oral dosing”.
For `Nc1nc(NCCOCCOCCOC(F)F)nnc1-c1cccc(Cl)c1Cl` [Compound 57, 6-(2,3-Dichlorophenyl)-N^3-(2-(2-(2-(difluoromethoxy)ethoxy)ethoxy)ethyl)-1,2,4-triazine-3,5-diamine], in series [1], the “exposure after oral dosing” value was “best exposure after oral dosing”.
As to `COCCOCC(C)(CO)Nc1nnc(-c2cccc(Cl)c2Cl)c(N)n1` (stereo not shown) [Compound 49, 2-((5-Amino-6-(2,3-dichlorophenyl)-1,2,4-triazin-3-yl)amino)-3-(2-methoxyethoxy)-2-methylpropan-1-ol], the “exposure after oral dosing” value in series [1] is recorded as “best exposure after oral dosing”.
For `COC[C@@H](O)CN1CCN(c2nnc(-c3cccc(Cl)c3Cl)c(N)n2)[C@H](CO)C1` [Compound 138, (S)-1-((S)-4-(5-amino-6-(2,3-dichlorophenyl)-1,2,4-triazin-3-yl)-3-(hydroxymethyl)piperazin-1-yl)-3-methoxypropan-2-ol], the IC50 in series [2] (setting [3]) was above 300 µM; in series [2] (setting [4]), above 200 µM.
`Nc1nc(N2CCN(CC(O)CO)C[C@H]2CO)nnc1-c1cccc(Cl)c1Cl` (stereo partly drawn) [Compound 140, 3-((S)-4-(5-amino-6-(2,3-dichlorophenyl)-1,2,4-triazin-3-yl)-3-(hydroxymethyl)piperazin-1-yl)propane-1,2-diol]: the IC50 in series [2] (setting [5]) was above 300 µM; in series [2] (read-out: Tonic state IC50) it was above 200 µM.
For the molecule `Nc1nc(N2CCN(CC(F)(F)F)CC2)nnc1-c1cccc(Cl)c1Cl` [Compound 87, 6-(2,3-dichlorophenyl)-3-(4-(2,2,2-trifluoroethyl)piperazin-1-yl)-1,2,4-triazin-5-amine], the results for the IC50 in series [2] (setting [3]) and in series [2] (setting [4]) were below 50 µM and above 200 µM, respectively.
Regarding `Nc1nc(N2CCNC[C@H]2CO)nnc1-c1cccc(Cl)c1Cl` [Compound 135], the values for the IC50 in series [2] (setting [3]) and in series [2] (setting [4]) were above 300 µM and above 200 µM, respectively.
Consider `CN(CCNc1nnc(-c2cccc(Cl)c2Cl)c(N)n1)C[C@H](O)C(F)(F)F` [Compound 148, (S)-3-((2-((5-amino-6-(2,3-dichlorophenyl)-1,2,4-triazin-3-yl)amino)ethyl)(methyl)amino)-1,1,1-trifluoropropan-2-ol], for which the figures for the IC50 in series [2] (setting [3]) and in series [2] (setting [4]) were below 50 µM and 149 µM, respectively.
As for `CN1CCN(CCOCCNc2nnc(-c3cccc(Cl)c3Cl)c(N)n2)CC1` [Compound 169, 6-(2,3-dichlorophenyl)-N3-(2-(2-(4-methylpiperazin-1-yl)ethoxy)ethyl)-1,2,4-triazine-3,5-diamine], the concentration for half-maximal inhibition (IC50) is above 300 µM in series [2] (setting [3]) and above 200 µM in series [2] (setting [4]).
The corresponding values for `CC(CS(=O)(=O)CCO)Nc1nnc(-c2cccc(Cl)c2Cl)c(N)n1` (stereo not shown) [Compound 93, 2-((2-((5-amino-6-(2,3-dichlorophenyl)-1,2,4-triazin-3-yl)amino)propyl)sulfonyl)ethanol] are above 300 µM and above 200 µM.
On the same counts, the results for `Nc1nc(N2CCN(C[C@H](O)COCC3CC3)CC2)nnc1-c1cccc(Cl)c1Cl` [Compound 83, (2S)-1-{4-[5-Amino-6-(2,3-dichlorophenyl)-1,2,4-triazin-3-yl]piperazin-1-yl}-3-(cyclopropylmethoxy)propan-2-ol] are below 50 µM and 171 µM.
For the molecule `NC(=O)CNCCOCCNc1nnc(-c2cccc(Cl)c2Cl)c(N)n1` [Compound 194, 2-((2-(2-((5-amino-6-(2,3-dichlorophenyl)-1,2,4-triazin-3-yl)amino)ethoxy)ethyl)amino)acetamide], the IC50 is above 300 µM in series [2] (setting [5]) and above 200 µM in series [2] (read-out: Tonic state IC50).
For `COCCS(=O)(=O)CCOCCNc1nnc(-c2cccc(Cl)c2Cl)c(N)n1` [Compound 186, 6-(2,3-dichlorophenyl)-N3-(2-(2-((2-methoxyethyl)sulfonyl)ethoxy)ethyl)-1,2,4-triazine-3,5-diamine], the IC50 in series [2] (setting [3]) was 100 µM; in series [2] (setting [4]) it was above 200 µM.
Regarding `CC(C)OCCOCCOCCNc1nnc(-c2cccc(Cl)c2Cl)c(N)n1` [Compound 209, 6-(2,3-dichlorophenyl)-N3-(2-(2-(2-isopropoxyethoxy)ethoxy)ethyl)-1,2,4-triazine-3,5-diamine], the IC50 in series [2] (setting [3]) is below 50 µM; in series [2] (setting [4]), above 200 µM.
On to `C[S+]([O-])CCOCCNc1nnc(-c2cccc(Cl)c2Cl)c(N)n1` (stereo not shown) [Compound 187, 6-(2,3-dichlorophenyl)-N3-(2-(2-(methylsulfinyl)ethoxy)ethyl)-1,2,4-triazine-3,5-diamine], for which the IC50 in series [2] (setting [3]) was 160 µM; in series [2] (setting [4]) it was above 200 µM.
Regarding `COCCOCC(=O)N(C)CCN(C)c1nnc(-c2cccc(Cl)c2Cl)c(N)n1` [Compound 190, N-(2-((5-amino-6-(2,3-dichlorophenyl)-1,2,4-triazin-3-yl)(methyl)amino)ethyl)-2-(2-methoxyethoxy)-N-methylacetamide], the half-inhibitory concentration (IC50) was 273 µM in series [2] (setting [3]) and above 200 µM in series [2] (setting [4]).
Regarding `Nc1nc(NC(CO)CO)nnc1-c1cccc(Cl)c1Cl` [Compound 20, 2-((5-Amino-6-(2,3-dichlorophenyl)-1,2,4-triazin-3-yl)amino)propane-1,3-diol], the IC50 in series [2] (setting [3]) is above 300 µM; in series [2] (setting [4]) it was above 200 µM.
The corresponding values for `COC[C@@H](O)CN1CCC12CCCN(c1nnc(-c3cccc(Cl)c3Cl)c(N)n1)C2` (stereo partly drawn) [Compound 161, (2S)-1-(6-(5-amino-6-(2,3-dichlorophenyl)-1,2,4-triazin-3-yl)-1,6-diazaspiro[3.5]nonan-1-yl)-3-methoxypropan-2-ol] are 51.4 µM and 147 µM.
On the same counts, the results for `COCCOCCOCCN1CCN(c2nnc(-c3cc(F)cc(Cl)c3Cl)c(N)n2)CC1` [Compound 104, 3-N-(4′-N-mPEG3-piperazinyl) 5-fluoro lamotrigine] are below 50 µM and above 200 µM.
On to `COCCOCCOCC(O)CNc1nnc(-c2cccc(Cl)c2Cl)c(N)n1` (stereo not shown) [Compound 153, 1-((5-Amino-6-(2,3-dichlorophenyl)-1,2,4-triazin-3-yl)amino)-3-(2-(2-methoxyethoxy)ethoxy)propan-2-ol], for which the results for the IC50 in series [2] (setting [3]) and in series [2] (setting [4]) were above 300 µM and above 200 µM, respectively.
On to `COCCOCCOCC(COCCOCCOC)OCCNc1nnc(-c2cccc(Cl)c2Cl)c(N)n1` [Compound 180, 6-(2,3-dichlorophenyl)-N3-(10-((2-(2-methoxyethoxy)ethoxy)methyl)-2,5,8,11-tetraoxatridecan-13-yl)-1,2,4-triazine-3,5-diamine], for which the IC50 in series [2] (setting [3]) is 298 µM; in series [2] (setting [4]), above 200 µM.
In the case of `Nc1nc(N2CCN(C[C@H](O)COC3CCC3)CC2)nnc1-c1cccc(Cl)c1Cl` [Compound 84, (2S)-1-{4-[5-Amino-6-(2,3-dichlorophenyl)-1,2,4-triazin-3-yl]piperazin-1-yl}-3-(cyclobutyloxy)propan-2-ol], the IC50 in series [2] (setting [3]) is below 50 µM; in series [2] (setting [4]) it was 192 µM.
